Patent US12029771B2, “Neem for treatment of RLS” (priority 2018, dated 2024)

Tested on: symptoms of restless legs syndrome (RLS)
Assay: Treatment of RLS patient, Case No. 1
Format: in vivo, human
Conditions: L-Dopa treatment before neem

Structure (SMILES): N[C@@H](Cc1ccc(O)c(O)c1)C(=O)O [L-Dopa]
- symptoms of RLS under exposure to L-Dopa: did not completely cease
